Measurements taken from US11440880B2, “Thalidomide analogs and methods of use” (The USA, as represented by the Secretary, Department of …, priority 2015, dated 2022).

How the values were obtained:
Assay type in all cases: cell-based, mouse
Set-up in all cases: key: NS=not significant; a “+” sign=anti-inflammatory or increased cell numbers; a “−” sign=cell toxicity or pro-inflammatory
[1] = tested on: RAW 264.7 cells; test: Cell viability (CellTiter 96 AQueous One) of LPS-challenged RAW 264.7 cells
Method: The CellTiter 96® AQueous One Solution Cell Proliferation Assay (Promega, Madison, Wis.) is routinely used as an assay of cell proliferation, and was used according to the manufacturer's recommendations. Changes in cellular health status are determined by use of indirect measures related to the formation of a colored tetrazolium dye product that can be measured spectrophotometrically at 490 nm λ. […] Optical densities (expressed as O.D.s) were measured after various incubations.
(§1) RAW 264.7 cells obtained from ATCC (Manassas, Va., USA) were grown in DMEM media supplemented with 10% FCS, penicillin 100 μg/ml and streptomycin 100 μg/ml, and maintained at 37° C. and 5% CO2. Cells were seeded in 24 well plates and, 24 hours later, were utilized in studies. One hour prior to the initiation of any study, the seeding media was replaced with fresh media (1 mL), and the cells were allowed to equilibrate at 37° C. and 5% CO2.
(§2) RAW 264.7 cells were challenged with LPS (Sigma, St Louis, Mo.: serotype 055:B5) from at a final concentration of 30 or 60 ng/mL. This concentration of LPS in RAW 264.7 cells induces a sub-maximal rise in both TNF-alpha and nitrite levels without a loss in cellular viability. This sub-maximal rise is useful for assessing whether the addition of an experimental drug can either lower or further raise levels of TNF-α and nitrite. Twenty four hours following the addition of LPS, conditioned media was harvested and analyzed for quantification of secreted TNF-α protein and nitrite levels. Fresh media was replaced into the wells and cell viability was then assessed.
(§3) Thalidomide and analogs were prepared in tissue culture grade DMSO (Sigma). RAW 264.7 cells were pretreated with thalidomide, analogues or vehicle one hour prior to a challenge with LPS. The effects of various concentrations of thalidomide analogues were assessed. All compounds were synthesized to a chemical purity of >99.5%, as assessed by chemical characterization by a combination of 1H NMR, 13C NMR and GC/MS analyses (Bruker AC-300 spectrometer, together with elemental analyses (Atlantic Microlab, Inc., Norcross, Ga.).

[2] = tested on: TNF-α protein; test: TNF-α protein level (ELISA) in LPS-challenged RAW 264.7 cells; settings: LPS 30 or 60 ng/mL, 24 h
Method: (§4) Nitrite levels in the culture media were measured by use of the Griess Reagent System (Promega, Madison, Wis.), following the manufacturer's protocol. The O.D. of unknown samples was read at 520 nm λ, compared to a sodium nitrite standard curve (1.5 μM to 100 μM) and nitrite measured media concentrations expressed as μM units. As the lowest nitrite concentration on the Griess Reagent System standard curve was 1.5 μM, this was chosen as the effective cutoff for defining measurable nitrite concentrations. TNF-α protein levels were measured by use of an ELISA specific for mouse TNF-α protein (BioLegend, San Diego, Calif.) and are expressed as a % change from their appropriate control or as pg/ml.
as §1, §2, §3

[3] = tested on: nitrite levels in the culture media; test: Nitrite level (Griess Reagent System) in LPS-challenged RAW 264.7 cells; settings: LPS 30 or 60 ng/mL, 24 h
Method: as §4, §1, §2, §3

| Structure (SMILES) | Viability ([1]; 3 μM) | Viability ([1]; 10 μM) | Viability ([1]; 30 μM) | TNF-α ([2]; 3 μM) | TNF-α ([2]; 10 μM) | TNF-α ([2]; 30 μM) | Viability ([1]; 1 μM) | TNF-α ([2]; 1 μM) | Nitrite ([3]; 1 μM) | Nitrite ([3]; 10 μM) | Nitrite ([3]; 30 μM) |
| --- | --- | --- | --- | --- | --- | --- | --- | --- | --- | --- | --- |
| Nc1ccc2c(c1)C(=O)N(C1=CNC(=O)CC1)C2 [Compound 43] | NS | NS | NS | NS | NS | NS |  |  |  |  |  |
| Nc1ccc2c(c1)C(=O)N(C1CC=CNC1=O)C2 (stereo not shown) [Compound 44] | NS | NS | NS | NS | NS | + |  |  |  |  |  |
| O=C1CCCC(=O)N1CN1C(=O)CCC(N2Cc3ccccc3C2=O)C1=O (stereo not shown) [Compound 48] |  | NS | NS |  | + | + | NS | + |  |  |  |
| CC(N1Cc2ccccc2C1=O)C12CC3CC(CC(C3)C1)C2 (stereo not shown) [Compound 71] |  | NS | − |  | NS | + | NS | NS | NS | NS | + |
| S=C1c2ccccc2CN1C12CC3CC(CC1C3)C2 [Compound 75] |  | NS | NS |  | + | + | NS | NS | NS | NS | NS |
| O=C1c2cccc([N+](=O)[O-])c2CN1CC12CC3CC(CC(C3)C1)C2 [Compound 78] |  | NS | − |  | + | + | NS | NS | NS | NS | + |
| Nc1cccc2c1CN(CC13CC4CC(CC(C4)C1)C3)C2=O [Compound 79] |  | NS | − |  | NS | NS | NS | NS | NS | NS | + |
| O=C1c2cccc([N+](=O)[O-])c2CN1C12CC3CC(CC(O)(C3)C1)C2 [Compound 87] |  | NS | NS |  | NS | NS | NS | NS | NS | NS | NS |
| Nc1cccc2c1CN(C13CC4CC(CC(O)(C4)C1)C3)C2=O [Compound 88] |  | NS | NS |  | NS | NS | NS | NS | NS | NS | NS |
| C[C@H]1[C@H](N2Cc3c(cccc3[N+](=O)[O-])C2=O)C[C@@H]2C[C@H]1C2(C)C [Compound 90] |  | NS | NS |  | + | + | NS | + | + | + | + |
| C[C@@H]1[C@@H](N2Cc3c(cccc3[N+](=O)[O-])C2=O)C[C@H]2C[C@@H]1C2(C)C [Compound 92] |  | − | − |  | + | + | NS | NS | + | + | + |
| CC1(C)[C@@H]2CC[C@]1(C)[C@H](N1Cc3c(cccc3[N+](=O)[O-])C1=O)C2 [Compound 94] |  |  | − |  | + | + | NS | NS | + | + | + |
| CC1(C)[C@@H]2CC[C@]1(C)[C@H](N1Cc3c(N)cccc3C1=O)C2 [Compound 95] |  | + | + |  | NS | NS | NS | NS | NS | NS | + |
| CC1(C)[C@@H]2CC[C@]1(C)[C@@H](N1Cc3c(cccc3[N+](=O)[O-])C1=O)C2 [Compound 96] |  | − | NS |  | + | + | − | NS | + | + | + |
| CC1(C)[C@@H]2CC[C@]1(C)[C@@H](N1Cc3c(N)cccc3C1=O)C2 [Compound 97] |  | NS | NS |  | + | NS | NS | NS | NS | NS | + |
| CC1(C)[C@@H]2CC[C@]1(C)[C@@H](N1C=C3C(=CC=C/C3=N\OO)C1=O)C2 [Compound 98] |  | NS | NS |  | + | + | NS | SIG | + | + | + |
| O=C1c2cccc([N+](=O)[O-])c2CN1[C@@H]1C[C@H]2CC[C@@H]1C2 [Compound 99] |  | − | − |  | NS | + | NS | NS | + | + | + |
| Nc1cccc2c1CN([C@@H]1C[C@H]3CC[C@@H]1C3)C2=O [Compound 100] |  | NS | NS |  | NS | NS | NS | NS | NS | NS | NS |
| O=C1c2cccc([N+](=O)[O-])c2CN1[C@H]1C[C@H]2CC[C@@H]1C2 [Compound 101] |  | − | NS |  | NS | + | − | NS | + | + | + |
| Nc1cccc2c1CN([C@H]1C[C@H]3CC[C@@H]1C3)C2=O [Compound 102] |  | NS | NS |  | NS | NS | NS | NS | NS | NS | NS |
| CC1(C)[C@@H]2CC[C@H](CN3Cc4c(cccc4[N+](=O)[O-])C3=O)[C@H]1C2 [Compound 103] |  | NS | SIG |  | + | SIG | NS | NS | + | + | NS |
| c1ccc2c(c1)CN=C2C1=NCc2ccccc21 [Compound 106] | + | + | + | NS | NS | NS |  |  |  |  |  |
| C[C@H]1[C@H](N2C(=O)C3C4C=CC(C4)C3C2=O)C[C@@H]2C[C@H]1C2(C)C (stereo partly shown) [Compound 120] |  | − |  |  | + |  |  |  |  |  |  |
